The text below walks through data of article PMC7686308, “Overcoming the blood–brain barrier by Annexin A1-binding peptide to target brain tumours” (British Journal of Cancer, 2020).

Peptide text beside a SMILES is read from it.

Data set [1] deals with ANXA1 with a free N-terminus. The note with it: plate binding analysis; cited from earlier work. The source says: (§1) We next assessed IF7 binding to recombinant human ANXA1 protein and human MC16 peptide in three ways (Fig. 2a-c). First, we added biotinylated IF7 in solution to plastic wells coated with monomeric MC16 and determined IF7 binding by peroxidase-conjugated streptavidin and a peroxidase colour reaction (Fig. 2a). […] Second, we assessed binding of IF7 and MC16 in solution by fluorescence correlation spectrometry (FCS) ( ...

Data set [2] relates to N-terminally His-Tagged ANXA1. The note with it: plate binding analysis; cited from earlier work.
Text: as §1

The next data set has as its system monomeric MC16. Put plainly: FCS binding to monomeric MC16. Also on record: species or system human. The note with it: IF7C-A546, 37 °C, 1 h, diffusion time. As to the method: (§2) A mixture of IF7C-A546 with Anxa1 or MC16 (50 μl) was loaded into each well of a 96-well plate and incubated at 37 °C for 1 h. FCS was performed with the MF20 analytical system (Olympus) using a 543 nm He–Ne laser for illumination. Each sample was measured five times with a data acquisition time of 10 sec per measurement. IF7C(RR) binding was defined as an increase in translational diffusion time relative to a control.
(§3) Fig. 2 Binding of IF7 to the ANXA1 N-terminal domain and full-length ANXA1 protein in vitro. a Plate binding assay of N-terminal biotinylated IF7C(RR) to human MC16 peptide and its mutants. Each synthetic MC16 and its mutant peptide (10 nmoles) was bound to maleimide-activated plastic well through its C-terminal cysteine residue. Biotinylated IF7C(RR) peptide (1 μg/mL) was added to each well and binding of biotinylated peptide was detected by peroxidase-conjugated streptavidin and peroxidase colour reaction. b FCS analysis of IF7 with ANXA1 (left) and with MC16 peptides (right) in solution. […] The proposed model was further validated by dG scoring, which was calculated using MOE software with GBVI/WSA, a program allows us to compare calculated and observed energetics.[59] The IF7 docking pose was calculated to be −3.7 kcal/mol.

The next data set concerns human MC16 peptide. Briefly: Plate binding assay to human MC16 peptide. The note with it: biotinylated IF7C(RR) 1 μg/mL, MC16 10 nmoles coated, peroxidase-streptavidin. The protocol: (§4) We next assessed IF7 binding to recombinant human ANXA1 protein and human MC16 peptide in three ways (Fig. 2a-c). First, we added biotinylated IF7 in solution to plastic wells coated with monomeric MC16 and determined IF7 binding by peroxidase-conjugated streptavidin and a peroxidase colour reaction (Fig. 2a). […] Thus, we modelled the ANXA1 dimer using the Zdock module for protein–protein docking.[26] The IF7 docking pose was calculated to be −3.7 kcal/mol (Fig. 2d).
as §3

The subject of data set [3] is N-terminally His-tagged ANXA1. Briefly: FCS binding to N-terminally His-tagged ANXA1. Also on record: species or system human. Conditions: IF7C-A546, 37 °C, 1 h, diffusion time. The protocol:
as §2, §3

The subject of data set [4] is subcutaneous colon tumours. The note with it: mouse, in vivo; cited from earlier work.
A further data set deals with tetrameric MC16. Briefly: FCS binding to tetrameric MC16. Details: species or system human. The note with it: IF7C-A546, 37 °C, 1 h, diffusion time.
Data set [5] has as its system MC16 mutant peptides F7A, K9A and E15A. Briefly: Plate binding assay to MC16 mutant peptides. Details: species or system human. Conditions: biotinylated IF7C(RR) 1 μg/mL, mutant peptide 10 nmoles coated. The protocol:
as §4, §3

Data set [6] in a line: Histology of tumours from mice injected with IF7. The note with it: histological analysis, data not shown. Format: in vivo, mouse.
The test system of another data set is mouse MC16. Put plainly: Plate binding assay to mouse MC16 peptide. The protocol: as §3
Fig. 3 Targeting of IF7 to the brain tumour vasculature in vivo in the mouse. a Binding of IF7 and control peptides to mouse and human MC16 peptides by plate assay. Biotinylated IF7C(RR) and control C(RR) was assessed for their binding to MC16 in a similar manner as in Fig. 2a. b Targeting of fluorescent-labelled IF7 peptide to the brain tumour vasculature in the mouse. […] Blue fluorescence (left panels) represents nuclear Hoechst 33342 and green fluorescence (right) represents Alexa 488. […]

The subject of data set [7] is ANXA1 exhibiting a free N-terminus. Put plainly: FCS binding to ANXA1 with free N-terminus. Details: species or system human. Conditions: IF7C-A546, 37 °C, 1 h, increase in diffusion time. The protocol: as §2, §3

`CC[C@H](C)[C@H](N)C(=O)N[C@@H](Cc1ccccc1)C(=O)N[C@@H](CC(C)C)C(=O)N[C@@H](CC(C)C)C(=O)N[C@@H](Cc1c[nH]c2ccccc12)C(=O)N[C@@H](CCC(N)=O)C(=O)N[C@@H](CCCNC(=N)N)C(=O)N[C@@H](CS)C(=O)N[C@@H](CCCNC(=N)N)C(=O)N[C@@H](CCCNC(=N)N)C(=O)O` [IF7] (H-IFLLWQRCRR-OH; N-terminus and C-terminus assumed): in data set [1], the “plate binding to ANXA1 with free N-terminus” value was “IF7 bound ANXA1 with a free N-terminus”. Further, in [2], the “plate binding to N-terminally His-Tagged ANXA1” value was “not N-terminally His-Tagged ANXA1”. In addition, the “binding in solution to MC16 monomer” value with monomeric MC16 is “the diffusion time of IF7 with MC16 monomer did not increase”. Besides, the “IF7 binding to MC16” value with human MC16 peptide was “IF7 bound to WT MC16”. Besides, the “binding in solution to N-terminally His-tagged ANXA1” value in data set [3] is listed as “not to N-terminally His-tagged ANXA1”. In [4], the “fluorescent signals 15 min after i.v. injection” value is “fluorescent signals are seen in vesicles at mostly the basal side of vasculature”; the “fluorescent signals 40 min after i.v. injection” value was “fluorescence is seen in the stroma and in tumour cells”. The “binding in solution to tetrameric MC16” value in the data set on tetrameric MC16 is reported as “IF7 bound to tetrameric rather than monomeric MC16”. In addition, in data set [5], the “IF7 binding to MC16 mutants” value was “binding was significantly reduced”. Further, the “signs of inflammation in tumours” value in data set [6] is given as “did not reveal signs of inflammation”. For the same compound, the “binding to human and mouse MC16 compared” value in the data set with mouse MC16 (Fig. 3a, human versus mouse MC16) was “IF7 bound both human and mouse MC16 peptides equally”. In addition, in the data set with mouse MC16 (biotinylated IF7C(RR), in a similar manner as in Fig. 2a), the “binding to mouse MC16” value is recorded as “IF7 binding to N-terminal domain of mouse MC16 was confirmed”. In data set [7], the “binding in solution to untagged ANXA1” value is given as “IF7 bound to ANXA1 exhibiting a free N-terminus”.
